The test system of this assay is mechanical allodynia in spinal nerve ligated rats. Put plainly: Determination of analgesic effect: mechanical allodynia (von Frey) after L5/L6 spinal nerve ligation. Conditions: oral, in PEG400, 60 minutes before von Frey testing; percentage of maximal protective effect relative to vehicle; male Sprague Dawley rats.

Source text: Male Sprague Dawley rats (80-100 g) were purchased from Charles River (Portage, Mich.). Prior to surgery, animals were group-housed and maintained in a temperature regulated environment (lights on between 7:00 a.m. and 8:00 p.m.). Following nerve ligation surgery, animals were group housed. Two weeks after surgery, experimentation began. Rats had access to food and water ad libitum.
Briefly, an incision was made on the dorsal portion of the hip and the muscle was blunt dissected to reveal the spinal processes. The L6 transverse process was removed, and the left L5 and L6 spinal nerves were tightly ligated with a 5.0 braided silk suture. The wound was cleaned, the membrane sewn with a 4.0 dissolvable Vicryl suture and the skin closed with wound clips.
For the assessment of neuropathic pain, mechanical allodynia in the affected paw of animals that had undergone spinal nerve ligation was evaluated using von Frey filaments. […] Using the Dixons Up-Down method, a baseline level of allodynia was determined to have a withdrawal threshold of 3 g of pressure.
Rats were placed in groups labeled A-D with six rats per group. Group A was administered 1.0 mL/kg of vehicle (100% PEG400). […] Data are expressed as the percentage of maximal protective effect relative to the control (vehicle treated) animals.

The molecule `N[C@H](C(=O)O)c1ccccc1` [(2S)-amino(phenyl)acetic acid] gave an EC50 of 50 µmol/kg. In the case of `NCC1(CC(=O)O)CCCCC1` [Gabapentin] it was 160 µmol/kg.

Source of the values: US20050148671A1, “(2S)-amino(phenyl)acetic acid and derivatives as alpha2delta voltage-gated calcium channel ligands” (priority 2004, published 2005).
